Assay [1] addresses LmNADK1 (NADK from Lysteria monocytogenes) (Listeria monocytogenes serovar 1/2a (strain ATCC BAA-679 / EGD-e), UniProt Q8Y8D7). Briefly: NAD kinase activity assay (coupled Glucose-6-phosphate dehydrogenase, absorbance at 340 nm). Format: biochemical. Conditions: for pKi: Dixon plots, 4 mM ATP, NAD 0.2, 0.5 and 1 mM, read-out: Ki, NADK from Lm; for Inhibition of LmNADK1 (in words): purified enzyme. The procedure:
(§1) Expression, purification and activity assay. His-tagged LmNADK1 wild-type and His-tagged SaNADK were expressed and purified on cobalt-based IMAC resins (Clontech) as previously published^13. The NAD kinase activity was determined by measuring the absorbance at 340 nm to follow the formation of reduced NADP produced by a coupling enzyme (Glucose-6-phosphate dehydrogenase from yeast). Coupling enzyme and its substrate were purchased from Sigma-Aldrich. The assay was performed in a 0.5 mL sample of (50 mM Tris-HCl pH 7.4, 10 mM MgCl2, 1 mM Glucose-6-phosphate, 2 mM sodium citrate) containing Glucose-6-phosphate dehydrogenase and NADK at 30° C. using a spectrophotometer Eppendorf ECOM 6122.
(§2) For inhibitor assays, IC50 was determined, in the presence of 1 mM NAD and 4 mM ATP (for LmNADK1) or 2 mM ATP (for SaNADK). Dixon plots were used to determine KI in the presence of 4 mM ATP (for LmNADK11) or 2 mM ATP (for Sa NADK) and three NAD concentrations (0.2, 0.5 and 1 mM). It was also checked that the inhibitors had no effect on the coupling enzyme activity.

Assay [2] concerns the target SaNADK (NADK from Staphylococcus aureus) (Staphylococcus aureus (strain COL), UniProt Q5HH78). The description is as above. Format: biochemical. The conditions noted are these: Dixon plots; 2 mM ATP; NAD 0.2, 0.5 and 1 mM; read-out: Ki, NADK from Sa. The protocol: as §1, §2
Assay [3] deals with Staphylococcus aureus S25 strain. Description: Bactericidal activity assay. Format: cell-based. The conditions noted are these: S. aureus, overnight at 37° C., inhibitor 1 to 100 μg/mL, CFU count. The protocol: 100 μL suspensions of S. aureus corresponding to 2.10^3 bacteria were incubated overnight at 37° C. with increasing concentrations of inhibitor (1 to 100 μg/mL). Bacterial killing (percent) was determined as the ratio of colony forming units after incubation with inhibitor to that of colony forming units after incubation with buffer alone. Data are mean values ±SD from three separate experiments. * indicates a statistical significance in Student's t-test of p<0.05.
The Staphylococcus aureus S25 strain, a human clinical isolate, was grown overnight in brain heart infusion (BHI) broth at 200 rpm and 37° C. Overnight cultures were diluted to OD600nm=0.05 in BHI-phosphate buffer saline (25% v/v). Bacteria were grown at 200 rpm and 37° C. until cultures reached OD600nm=0.5. Bacterial suspensions were adjusted to a concentration of 2.10^5 bacteriamL. In a microtiter plate, 2.10^3 bacteria were incubated overnight at 200 rpm and 37° C. with increasing concentrations of NADK inhibitor in 0.1 mL BHI-phosphate buffer saline (25% v/v) per well. To quantify the bactericidal activity, each bacterial suspension was serially diluted in BHI and plated on BHI agar plates in duplicates. Plates were incubated at 37° C. for 24 h to 48 h and the number of colony forming units was determined.

For assay [4] the test system is unchanged. Conditions: reference value for comparison; cited from earlier work.
In assay [5] the target is NADK from Listeria monocytogenes (Listeria monocytogenes serovar 1/2a (strain ATCC BAA-679 / EGD-e), UniProt Q8Y8D7). The conditions noted are these: literature value; read-out: K (affinity), inhibition of NADK; cited from earlier work.

pKi: −log10 of the molar value.

The values below come from patent US8927520B2, “Antibacterial compounds” (Institut Pasteur, priority 2010, dated 2015).

In the case of “5′-Amino-5′-deoxyadenosin-8-yl-thio-N-[(5′-amino-5′-deoxy-adenosine)methyl]acetamide [Inhibitor 17]”, the pKi in assay [1] was 4.52; in assay [2], 4.30. In addition, the “Inhibition of LmNADK1 (in words)” value in assay [1] is reported as “micromolar range”. Besides, the “Concentration giving significant bactericidal activity” value in assay [3] came out at 1 µg/mL.

Regarding “8-[3-(Adenosin-5′-yl)methoxyprop-1-yn-1-yl]adenosine [Inhibitor 22]”, in assay [1], the pKi is 4.70 and the “Inhibition of LmNADK1 (in words)” value is on record as “micromolar range”. Besides, in assay [2], the pKi was 4.82. In addition, the “Concentration giving significant bactericidal activity” value in assay [3] worked out at 1 µg/mL.

With `Nc1ncnc2c1ncn2[C@@H]1O[C@H](CNCC#Cc2nc3c(N)ncnc3n2[C@@H]2O[C@H](CO)[C@@H](O)[C@H]2O)[C@@H](O)[C@H]1O` [Inhibitor 19, 8-[3-N-(5′-Deoxyadenosin-5′-yl)aminoprop-1-yn-1-yl]adenosine], in assay [1], the pKi was 5.00 and the “Inhibition of LmNADK1 (in words)” value is given as “micromolar range”. In addition, the pKi in assay [2] is 5.30. Further, in assay [3], the “Concentration giving significant bactericidal activity” value was 10 µg/mL.

Take `CN[C@H](CC(C)C)C(=O)N[C@H]1C(=O)N[C@@H](CC(N)=O)C(=O)N[C@H]2C(=O)N[C@H]3C(=O)N[C@H](C(=O)N[C@H](C(=O)O)c4cc(O)cc(O)c4-c4cc3ccc4O)[C@H](O)c3ccc(c(Cl)c3)Oc3cc2cc(c3O[C@@H]2O[C@H](CO)[C@@H](O)[C@H](O)[C@H]2O[C@H]2C[C@](C)(N)[C@H](O)[C@H](C)O2)Oc2ccc(cc2Cl)[C@H]1O` [vancomycin]: in assay [4], the “Efficiency of reference compound (bactericidal concentration)” value is 8 µg/mL.

With Di-5′-thioadenosine [DTA], the pKi in assay [5] was roughly 4.70.
